Entries after “also recorded” stand apart in the source; their conditions may differ. Where no end group is shown, it is not given here.
Key:
HER2-ECD [1] = biological target: T1, HER2-ECD (Homo sapiens, UniProt P04626); assay: HER2 competition ELISA (block binding of 1.1.FI-Zb to immobilized HER2-ECD); conditions: for HER2 binding activity of Superdex 75 fractions (active species): monomer and dimer fractions assayed in HER2 competition ELISA; for IC50: read-out: IC50, block binding of 1.1.FI-Zb to immobilized HER2, HER2 competition ELISA, 40 nM biotinylated 1.1.FI-Z
T1 construct: immobilized extracellular domain of Erb2 (HER2-ECD, Hudziak et al. (1991) J. Biol. Chem. 266:24109-15)
Experimental: By way of exemplification and not limitation an ELISA assay can be conducted wherein microtiter plates (for example, Nunc Maxisorp™ 96-well plates, Inter Med, Denmark) are coated with HER2-ECD in 50 mM ammonium bicarbonate, pH 9.3, using 5 μg/ml, overnight at 4° C. Wells can be blocked using PBS containing 1% BSA (PBS-BSA) for 1 hr at 25° C. […] Following an incubation of about 1 hour the plate is washed with PBS-TWEEN and Strepavidin-HRP is added for about 30 min. Plates are washed again with PBS-TWEEN and the bound HRP assayed using ABTS/H2O2 substrate. The change in absorbance at 405 nm is monitored. Decrease in absorbance is plotted vs. sample concentration and an IC50 for each candidate peptide ligand is determined.
Following a 1 h incubation the plate was washed with PBS-Tween and Strepavidin/HRP conjugate (Streptavidin-POD, Roche Molecular Biochemicals) was added for 30 min. Plates were washed again with PBS-Tween and the bound HRP was assayed using ABTS/H2O2 substrate (Kirkegaard & Perry Laboratories) and the absorbance at 405 nm was monitored. […] Fractions from the HPLC were tested for their ability to compete in the HER2 competition ELISA.

HER2 expressed on cells = biological target: T2, HER2 expressed on cells (Homo sapiens, UniProt P04626); assay: Cell binding by FACS analysis (BT 474, MDA 361, BaF3); format: cell-based; conditions: BT 474 (3×10^6 receptors/cell), MDA 361 (4×10^5 receptors/cell), BaF3 (no HER2); 0, 0.5 or 5 μM
T2 construct: Cells expressing HER2 (BT 474 [3+], MDA 361 [2+], and BaF3 [0+]); endogenous in cells; host or cells: BT 474, MDA 361 (BaF3 as control line without HER2)

HER2-ECD [2] = biological target: T1, HER2-ECD; assay: Phage binding assay, immobilized HER2-ECD
Experimental: (§1) • Selection Conditions—HER2-ECD was immobilized directly to maxisorp plates in 50 mM ammonium bicarbonate, pH 9.3, using 5 μg/ml, overnight at 4° C. Wells were blocked using PBS containing 1% BSA (PBS-BSA) for 1 hr at 25° C. Phage from each pool were incubated in wells containing HER2-ECD in PBS-BSA for 3 hr at 25° C.; generally about 5×10^10 phage were added at the beginning of each round. Unbound phage were removed by repetitive washing with PBS containing 0.05% Tween 20 (PBS-Tween); remaining phage were eluted with 500 mM KCl, 10 mM HCl, pH 2. The eluted phage were then amplified in XL1-Blue cells with VCSM13 helper phage (Stratagene) overnight at 37° C. IPTG (10 μM) was added only to the initial phage libraries and during amplification following round 1; later rounds relied on basal expression of the tac promoter for production of peptide-pVIII expression. Enrichment was monitored by titering the number of phage which bound to a target coated well compare to a well coated with BSA. • HER2 Phage Binding Assay—Inhibition of binding of phage displaying a single copy of peptide 1.1FI (Table 1) on their surface to the immobilized extracellular domain of Erb2 (HER2-ECD, Hudziak et al. (1991) J. Biol. Chem. 266:24109-15) was monitored using a phage ELISA. HER2-ECD was immobilized directly to Maxisorp plates (Nunc) in 50 mM ammonium bicarbonate, pH 9.3, using 5 μg/ml, overnight at 4° C. Wells were blocked using PBS containing 1% BSA (PBS-BSA) for 1 h at 25° C. Dilutions of 1.1FI-Fc in PBS-BSA were tested for their ability to block the binding of 1.1FI displaying phage to the immobilized HER2-ECD. The microtiter plate was washed with PBS containing 0.05% Tween20 (PBS-Tween) and the phage bound to HER2-ECD were detected with an anti-gVIII/HRP monoclonal antibody conjugate (Amersham Pharmacia Biotech). The amount of HRP bound Was measured using ABTS/H2O2 substrate and monitoring the change at 405 nm. Results • Selection of Polyvalent Peptide-Phage That Bind to HER2-ECD—Polyvalent peptide libraries were sorted in 7 pools (Table 1) against immobilized HER2-ECD. […]

HER3 = HER3 (Homo sapiens, UniProt P21860); assay: Phage binding assay, HER3
BSA = BSA (Bos taurus, UniProt P02769); assay: Phage binding assay, immobilized BSA
Experimental: as §1

HER4 = HER4 (Homo sapiens, UniProt Q15303); assay: Phage binding assay, HER4
immobilized HER2 = biological target: T3, immobilized HER2 (Homo sapiens, UniProt P04626); assay: Binding of Class 1 and Class 7 phage clones to immobilized HER2 in the presence of peptide
T3 construct: immobilized extracellular domain of Erb2 (HER2-ECD, Hudziak et al. (1991) J. Biol. Chem. 266:24109-15)

Sequence of HER3 (P21860 20-1342, species assumed): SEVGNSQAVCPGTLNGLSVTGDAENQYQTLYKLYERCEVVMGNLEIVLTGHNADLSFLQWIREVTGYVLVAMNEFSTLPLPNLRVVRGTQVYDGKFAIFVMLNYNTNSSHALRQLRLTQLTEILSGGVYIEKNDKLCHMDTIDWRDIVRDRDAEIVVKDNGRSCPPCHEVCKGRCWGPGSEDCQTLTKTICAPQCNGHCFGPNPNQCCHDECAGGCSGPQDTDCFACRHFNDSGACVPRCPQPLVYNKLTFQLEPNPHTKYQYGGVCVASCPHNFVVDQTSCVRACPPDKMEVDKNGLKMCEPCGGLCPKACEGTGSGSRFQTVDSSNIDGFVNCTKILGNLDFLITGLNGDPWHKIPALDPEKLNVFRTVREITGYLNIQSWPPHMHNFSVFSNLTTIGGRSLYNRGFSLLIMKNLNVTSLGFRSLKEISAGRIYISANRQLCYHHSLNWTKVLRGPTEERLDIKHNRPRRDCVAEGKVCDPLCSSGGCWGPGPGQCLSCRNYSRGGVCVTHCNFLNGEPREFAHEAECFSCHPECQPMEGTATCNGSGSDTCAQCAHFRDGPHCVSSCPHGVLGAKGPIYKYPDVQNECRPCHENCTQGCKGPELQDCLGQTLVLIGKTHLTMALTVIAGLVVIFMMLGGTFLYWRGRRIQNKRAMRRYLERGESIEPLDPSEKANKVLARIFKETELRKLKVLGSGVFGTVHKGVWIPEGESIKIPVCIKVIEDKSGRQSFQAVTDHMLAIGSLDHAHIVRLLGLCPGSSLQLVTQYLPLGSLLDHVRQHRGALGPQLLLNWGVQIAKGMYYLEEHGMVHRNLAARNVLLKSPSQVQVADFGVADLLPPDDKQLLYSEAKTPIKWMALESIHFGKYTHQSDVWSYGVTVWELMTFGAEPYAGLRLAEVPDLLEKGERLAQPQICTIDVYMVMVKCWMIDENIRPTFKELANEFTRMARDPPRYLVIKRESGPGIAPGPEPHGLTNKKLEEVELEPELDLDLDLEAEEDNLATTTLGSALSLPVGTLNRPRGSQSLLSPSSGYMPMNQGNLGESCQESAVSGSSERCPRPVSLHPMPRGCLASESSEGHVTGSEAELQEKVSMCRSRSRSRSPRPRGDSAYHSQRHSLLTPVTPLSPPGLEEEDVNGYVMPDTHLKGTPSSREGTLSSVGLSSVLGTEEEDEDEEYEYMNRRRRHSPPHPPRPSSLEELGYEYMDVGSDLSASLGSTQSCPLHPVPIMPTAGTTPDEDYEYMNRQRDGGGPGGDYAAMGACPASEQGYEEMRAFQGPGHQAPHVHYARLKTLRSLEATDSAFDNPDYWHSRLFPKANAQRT
Sequence of BSA (P02769 25-607): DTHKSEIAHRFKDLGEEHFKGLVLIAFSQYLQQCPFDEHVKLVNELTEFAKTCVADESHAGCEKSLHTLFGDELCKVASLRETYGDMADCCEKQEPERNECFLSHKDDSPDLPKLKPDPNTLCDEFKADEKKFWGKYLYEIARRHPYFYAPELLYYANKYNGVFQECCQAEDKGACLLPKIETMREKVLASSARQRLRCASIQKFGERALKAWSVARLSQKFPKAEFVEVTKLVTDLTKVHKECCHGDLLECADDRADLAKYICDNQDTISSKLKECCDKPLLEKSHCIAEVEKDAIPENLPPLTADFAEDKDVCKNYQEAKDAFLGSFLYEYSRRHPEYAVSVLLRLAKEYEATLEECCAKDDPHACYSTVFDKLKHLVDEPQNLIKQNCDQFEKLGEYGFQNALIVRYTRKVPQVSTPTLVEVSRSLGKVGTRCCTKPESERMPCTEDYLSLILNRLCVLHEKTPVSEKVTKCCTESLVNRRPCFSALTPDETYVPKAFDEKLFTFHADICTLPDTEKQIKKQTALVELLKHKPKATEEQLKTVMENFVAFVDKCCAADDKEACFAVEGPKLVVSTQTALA
Sequence of HER4 (Q15303 26-1308, species assumed): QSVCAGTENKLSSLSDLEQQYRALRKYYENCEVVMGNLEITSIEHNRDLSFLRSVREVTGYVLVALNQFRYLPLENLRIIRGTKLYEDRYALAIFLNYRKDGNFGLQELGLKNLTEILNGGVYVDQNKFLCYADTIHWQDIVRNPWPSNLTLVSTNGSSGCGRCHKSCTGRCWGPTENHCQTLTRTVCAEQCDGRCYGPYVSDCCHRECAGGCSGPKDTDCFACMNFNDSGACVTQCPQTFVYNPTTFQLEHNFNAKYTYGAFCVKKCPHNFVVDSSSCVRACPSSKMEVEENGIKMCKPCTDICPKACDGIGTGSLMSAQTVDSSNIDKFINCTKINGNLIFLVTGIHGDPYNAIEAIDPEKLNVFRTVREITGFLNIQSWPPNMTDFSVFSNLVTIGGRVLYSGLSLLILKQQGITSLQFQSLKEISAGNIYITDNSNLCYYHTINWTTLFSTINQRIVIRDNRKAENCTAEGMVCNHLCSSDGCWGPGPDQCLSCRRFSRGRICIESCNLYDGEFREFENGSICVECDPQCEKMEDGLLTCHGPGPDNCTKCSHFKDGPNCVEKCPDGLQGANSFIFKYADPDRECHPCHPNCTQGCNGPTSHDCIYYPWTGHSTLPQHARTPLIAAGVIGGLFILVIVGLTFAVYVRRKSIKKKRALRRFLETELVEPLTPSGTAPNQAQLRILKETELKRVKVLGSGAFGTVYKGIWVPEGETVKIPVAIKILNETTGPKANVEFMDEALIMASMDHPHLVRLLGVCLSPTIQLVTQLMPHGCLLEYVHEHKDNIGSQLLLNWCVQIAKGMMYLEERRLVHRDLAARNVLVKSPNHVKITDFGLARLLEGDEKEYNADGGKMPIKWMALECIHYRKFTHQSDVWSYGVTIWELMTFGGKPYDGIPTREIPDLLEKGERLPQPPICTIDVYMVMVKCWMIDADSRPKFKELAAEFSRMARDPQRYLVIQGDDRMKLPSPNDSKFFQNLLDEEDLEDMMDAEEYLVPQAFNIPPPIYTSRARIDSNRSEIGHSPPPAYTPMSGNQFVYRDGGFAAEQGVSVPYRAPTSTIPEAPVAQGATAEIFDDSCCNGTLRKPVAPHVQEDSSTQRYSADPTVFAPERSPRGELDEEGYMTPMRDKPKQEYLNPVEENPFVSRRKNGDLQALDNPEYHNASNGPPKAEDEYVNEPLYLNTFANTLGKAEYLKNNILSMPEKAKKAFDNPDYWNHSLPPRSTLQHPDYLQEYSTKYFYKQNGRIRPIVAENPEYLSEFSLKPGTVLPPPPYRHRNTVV

Substance | Phage binding to immobilized HER2-ECD (HER2-ECD [2]) | Phage binding to HER3 (HER3) | Phage binding to immobilized BSA (BSA) | Phage binding to HER4 (HER4) | also measured
1.1.FI-Z: peptide 1.1.FI expressed and secreted from E. coli as a fusion to the Z domain of protein A (QVYESWGCIGPGCACLQACL) | – | – | – | – | HER2 binding activity of Superdex 75 fractions (active species) (HER2-ECD [1]): coincided with the dimer fractions rather than the monomer fractions; also recorded: coinciding with dimer fractions; IC50 (HER2-ECD [1]): 50 nM
1.1.FI-Zb: biotinylated 1.1.FI-Z preparation (QVYESWGCIGPGCACLQACL; cysteine pairing not given here; also: biotinylated (NHS-LC-biotin), fused to Z domain (not in chain)) | – | – | – | – | Binding to cells by FACS (HER2 expressed on cells): bind cells proportional to the number of HER2 receptors expressed on the cell
(FI)2-Z: 1.1.FI sequence repeated twice and fused to the Z domain of protein A, single chain dimer (QVYESWGCIGPGCACLQACLGGGSGGQVYESWGCIGPGCACLQACL; cysteine pairing not given here; also: fused to the Z domain of protein A (end not given here)) | – | – | – | – | HER2 binding activity of Superdex 75 fractions (active species) (HER2-ECD [1]): the active species was now identified as monomer; HER2 binding activity of Superdex 75 fractions (active species) (HER2-ECD [1]; listed as (1.1FI)2-Z): coinciding with monomer fractions
CSWVLVQCGGEWWHCCGLGCGLVVNAC (cysteine pairing not given here) [7.1] | bind | not | not | not | –
R S C A D V A S R C W E H C I T [5.1] | bind | not | not | not | –
YEVEAWDCMGPGCANLFEAH [1.1] | bind | not | not | not | –
YSFEGWGCIGPGCAYLFEGH (cysteine pairing not given here) [HER201] | – | – | – | – | Blocking of binding of Class 1 and Class 7 phage to immobilized HER2 (immobilized HER2): block the binding of both Class 1 and Class 7 phage
active fraction: HPLC fraction of trypsin-digested 1.1.FI-Z; mass corresponding to HER212 sequence, found to contain dimer (QVYESWGCIGPGCACLQACL; cysteine pairing not given here; also: fraction found to contain dimer) | – | – | – | – | IC50 (HER2-ECD [1]): 3 nM

Source: patent US6987088B2, “Compounds that bind HER2” (Genentech, Inc., priority 1999, dated 2006)
